Assay [1] concerns rat platelets. Put plainly: Inhibitory effect ex vivo on collagen-induced platelet aggregation of rat platelets after oral administration (Experiment 2). In kind it is in vivo. Conditions: 10 mg/kg orally, Sprague-Dawley rats fasted about 20 hours, blood 3 hours after administration. The procedure:
A test compound solution (Dose: 10 mg/kg) was orally administered to Sprague-Dawley rats fasted for about 20 hours. Three hours after administration, blood was collected from the abdominal aorta of the rats. […] The bottom layer was further centrifuged to give platelet-poor plasma ("PPP") as the supernatant solution. PRP was diluted with PPP so that the blood platelet counts were 0.8-1×10^6 /mm^3.

The next assay concerns Human platelets. Description: Inhibitory effects in vitro on collagen-induced platelet aggregation of human platelets (Experiment 1). Type of assay: cell-based. Conditions: human PRP, 37° C., read-out: IC50 (concentration of test compound required to induce 50% inhibition of collagen-induced platelet aggregation). The source says: (§1) (Inhibitory effects in vitro on collagen-induced platelet aggregation of rat or human platelets)
(§2) The bottom layer was further centrifuged to give platelet-poor plasma ("PPP") as the supernatant solution. Platelet counts were adjusted to about 0.8-1×10^6 /mm^3 for rat PRP and about 4×10^5 /mm^3 for human PRP by dilution with PPP.

Assay [2] relates to Rat platelets. Description: Inhibitory effects in vitro on collagen-induced platelet aggregation of rat platelets (Experiment 1). Type of assay: cell-based. As to conditions: rat PRP, 37° C., read-out: IC50 (concentration of test compound required to induce 50% inhibition of collagen-induced platelet aggregation).
Excerpt: as §1, §2

Where a name gives a salt, the structure may show the parent alone.

Consider `CNCCN1C(=O)[C@H](O)[C@H](c2ccc(OC)cc2)Sc2cc(O)ccc21` (relative stereo) [(±)-cis-2-(4-methoxyphenyl)-3,8-dihydroxy-5-[2-(N--methylamino)ethyl]-2,3-dihydro-1,5-benzothiazepin-4(5H)--one hydrochloride], for which the Platelet aggregation-inhibiting activity entry in the assay with rat platelets [1] is listed as “++ ((++) if the percentage inhibition is not less than 50%)”.
The same measure, in the same setting: then `CNCCN1C(=O)[C@H](OC(C)=O)[C@H](c2ccc(OC)cc2)Sc2cc(C)ccc21` (relative stereo) [(±)-cis-2-(4-methoxyphenyl)-3-acetoxy-5-[2-(N-methylamino)ethyl]-8-methyl-2,3-dihydro-1,5-benzothiazepin-4(5H)-one hydrochloride. 1/2H2 O.1/2C2 H5 OH], with “++ ((++) if the percentage inhibition is not less than 50%)”.
Take `Br.CNCCN1C(=O)[C@H](O)[C@H](c2ccc(C)cc2)Sc2ccccc21` (racemic) [(±)-cis-2-(4-methylphenyl)-3-hydroxy-5-[2-(N-methylamino)ethyl]-2,3-dihydro-1,5-benzothiazepin-4(5H)-one hydrobromide]: the IC50 in the assay on Human platelets stood at 0.3 mg/L.
As to `CNCCN1C(=O)[C@H](OC(C)=O)[C@H](c2ccc(C)cc2)Sc2cc(C)ccc21` (relative stereo) [(±)-cis-2-(4-methylphenyl)-3-acetoxy-5-[2-(N--methylamino)ethyl]-8-methyl-2,3-dihydro-1,5-benzothiazepin-4(5H)--one hydrochloride], the Platelet aggregation-inhibiting activity entry in the assay with rat platelets [1] is “++ ((++) if the percentage inhibition is not less than 50%)”. Besides, the IC50 in the assay on Rat platelets [2] was found to be 0.5 mg/L.
Consider `CNCCN1C(=O)[C@H](O)[C@H](c2ccc(C)cc2)Sc2cc(C)ccc21` (single isomer, unassigned) [(-)-cis-2-(4-methylphenyl)-3-hydroxy-5-[2-(N-methylamino)ethyl]-8-methyl-2,3-dihydro-1,5-benzothiazepin-4(5H)-one hydrochloride hemihydrate], for which the IC50 was 0.003 to 0.03 mg/L with Human platelets and 0.1 mg/L in the assay on Rat platelets [2].
Take `CNCCN1C(=O)[C@H](OC(C)=O)[C@H](c2ccc(C)cc2)Sc2cc(OC)ccc21` (relative stereo) [(±)-cis-2-(4-methylphenyl)-3-acetoxy-5-[2-(N--methylamino)ethyl]-8-methoxy-2,3-dihydro-1,5-benzothiazepin-4(5H)--one oxalate]: in the assay on Human platelets, the IC50 is 0.5 mg/L.
On to `CNCCN1C(=O)[C@H](O)[C@H](c2ccc(C)cc2)Sc2cc(C)ccc21` (relative stereo) [(±)-cis-2-(4-methylphenyl)-3-hydroxy-5-[2-(N--methylamino)ethyl]-8-methyl-2,3-dihydro-1,5-benzothiazepin-4(5H)--one sulfate], for which the IC50 in the assay on Rat platelets [2] lay in the range of 0.1 to 0.3 mg/L.
Regarding `CNCCN1C(=O)[C@H](O)[C@H](c2ccc(OC)cc2)Sc2cc(C)ccc21.Cl` (racemic) [(±)-cis-2-(4-methoxyphenyl)-3-hydroxy-5-[2-(N-methylamino)ethyl]-8-methyl-2,3-dihydro-1,5-benzothiazepin-4(5H)-one hydrochloride], the Platelet aggregation-inhibiting activity entry with rat platelets [1] is recorded as “++ ((++) if the percentage inhibition is not less than 50%)”.
Still for that read-out and setting: for `CNCCN1C(=O)[C@H](OC(C)=O)[C@H](c2ccc(OC)cc2)Sc2cc(C)ccc21.O=C(O)C(=O)O` (single isomer, unassigned) [(-)-cis-2-(4-methoxyphenyl)-3-acetoxy-5-[2-(N-methylamino)ethyl]-8-methyl-2,3-dihydro-1,5-benzothiazepin-4(5H)-one oxalate] the value was “++ ((++) if the percentage inhibition is not less than 50%)”.
`CNCCN1C(=O)[C@H](O)[C@H](c2ccc(C)cc2)Sc2cc(OC)ccc21` (relative stereo) [(±)-cis-2-(4-methylphenyl)-3-hydroxy-5-[2-(N--methylamino)ethyl]-8-methoxy-2,3-dihydro-1,5-benzothiazepin-4(5H)--one hydrochloride]: the IC50 in the assay on Human platelets is 0.5 mg/L; in the assay with Rat platelets [2], 0.3 to 1 mg/L.
Consider `CNCCN1C(=O)[C@H](O)[C@H](c2ccc(OC)cc2)Sc2cc(C)ccc21` (single isomer, unassigned) [(-)-cis-2-(4-methoxyphenyl)-3-hydroxy-5-[2-(N--methylamino)ethyl]-8-methyl-2,3-dihydro-1,5-benzothiazepin-4(5H)--one hydrobromide], for which the Platelet aggregation-inhibiting activity entry with rat platelets [1] was “++ ((++) if the percentage inhibition is not less than 50%)”.
`CNCCN1C(=O)[C@H](O)[C@H](c2ccc(C)cc2)Sc2cc(C)ccc21` (relative stereo) [(±)-cis-2-(4-methylphenyl)-3-hydroxy-5-[2-(N--methylamino)ethyl]-8-methyl-2,3-dihydro-1,5-benzothiazepin-4(5H)--one hydrochloride]: in the assay on rat platelets [1], the Platelet aggregation-inhibiting activity entry is given as “++ ((++) if the percentage inhibition is not less than 50%)”. The IC50 with Human platelets came out at 0.3 mg/L.

(Values after patent publication US4594342A, “1,5-benzothiazepine derivative” (priority 1984, dated 1986).)
